Data from patent publication US20060223996A1, “IL-12 modulatory compounds” (Synta Pharmaceuticals Corp., priority 2004, published 2006).

System: IL-12
Experiment: Human in vitro assay: inhibition of IL-12 production in IFNγ/LPS- or IFNγ/SAC-stimulated human PBMC or THP-1 cells (ELISA)
Assay type: cell-based
Conditions: read-out: IC50 Range (representative in vitro IC50 data)
Summary of the method: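 Sandwich ELISA for IL-12 (p70, p40) on supernatants collected 18 h after stimulation gave IC50 values; MTS monitored viability. THP-1 cells: IFNγ 100 U/mL priming 22 h, SAC 0.025%. PBMC: IFNγ 30 U/mL for 22 h plus LPS 1 μg/mL, or IFNγ 100 U/mL plus SAC 0.01%. Final DMSO 0.25%.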

Structure (SMILES)	IC50
CN(C)c1cccc(NC(=O)c2cc(OCCO)nc(N3CCOCC3)n2)c1 [Compound 309, 6-(2-Hydroxy-ethoxy)-2-morpholin-4-yl-pyrimidine-4-carboxylic acid (3-dimethylamino-phenyl)-amide]	< 1 µM
COCCN(C)c1cc(C(=O)Nc2cccc(N(C)C)c2)nc(N2CCOCC2)n1 [Compound 302, 6-[(2-Methoxy-ethyl)-methyl-amino]-2-morpholin-4-yl-pyrimidine-4-carboxylic acid (3-dimethylamino-phenyl)-amide]	< 1 µM
CN(C)c1ccc(NC(=O)c2cc(OCCN3CCOCC3)nc(N3CCOCC3)n2)cc1 [Compound 57, 2-Morpholin-4-yl-6-(2-morpholin-4-yl-ethoxy)-pyrimidine-4-carboxylic acid (4-dimethylamino-phenyl)-amide]	≥ 1 µM
Cc1[nH]c2ccc(NC(=O)c3cc(NCC(=O)N4CCc5ccccc5C4)nc(N4CCOCC4)n3)cc2c1C [Compound 103, 6-[2-(3,4-Dihydro-1H-isoquinolin-2-yl)-2-oxo-ethylamino]-2-morpholin-4-yl-pyrimidine-4-carboxylic acid (2,3-dimethyl-1H-indol-5-yl)-amide]	< 1 µM
O=C(Nc1cccc(-n2cccn2)c1)Nc1cc(OCCN2CCOCC2)nc(N2CCOCC2)n1 [Compound 327, 1-[2-Morpholin-4-yl-6-(2-morpholin-4-yl-ethoxy)-pyrimidin-4-yl]-3-(3-pyrazol-1-yl-phenyl)-urea]	≥ 1 µM
Cc1[nH]c2ccc(NC(=O)c3cc(OCC(=O)OC(C)(C)C)nc(N4CCOCC4)n3)cc2c1C [Compound 316, [6-(2,3-Dimethyl-1H-indol-5-ylcarbamoyl)-2-morpholin-4-yl-pyrimidin-4-yloxy]-acetic acid tert-butyl ester]	< 1 µM
Cc1[nH]c2ccc(NC(=O)c3cc(N4CCC(O)CC4)cc(N4CCOCC4)n3)cc2c1C [Compound 171, 4-Hydroxy-6′-morpholin-4-yl-3,4,5,6-tetrahydro-2H-[1,4′]bipyridinyl-2′-carboxylic acid (2,3-dimethyl-1H-indol-5-yl)-amide]	< 1 µM
CCN(CC)c1cccc(NC(=O)c2cc(OCCN3CCOCC3)nc(N3CCOCC3)n2)c1 [Compound 300, 2-Morpholin-4-yl-6-(2-morpholin-4-yl-ethoxy)-pyrimidine-4-carboxylic acid (3-diethylamino-phenyl)-amide]	≥ 1 µM
Cc1[nH]c2ccc(NC(=O)c3cc(N4CCN(c5ccccn5)CC4)nc(N4CCOCC4)n3)cc2c1C [Compound 90, 2-Morpholin-4-yl-6-(4-pyridin-2-yl-piperazin-1-yl)-pyrimidine-4-carboxylic acid (2,3-dimethyl-1H-indol-5-yl)-amide]	< 1 µM
Cn1ncc2ccc(NC(=O)c3cc(OCCN4CCOCC4)nc(N4CCOCC4)n3)cc21 [Compound 216, N-(1-methyl-1H-indazol-6-yl)-2-morpholino-6-(2-morpholinoethoxy)pyrimidine-4-carboxamide]	≥ 1 µM
Cc1[nH]c2ccc(NC(=O)c3cc(NCC(=O)N(C)CCO)nc(N4CCOCC4)n3)cc2c1C [Compound 101, 6-({[(2-Hydroxy-ethyl)-methyl-carbamoyl]-methyl}-amino)-2-morpholin-4-yl-pyrimidine-4-carboxylic acid (2,3-dimethyl-1H-indol-5-yl)-amide]	< 1 µM
O=C(Nc1cccc([N+](=O)[O-])c1)c1cc(OCCN2CCOCC2)nc(N2CCOCC2)n1 [Compound 276, 2-Morpholin-4-yl-6-(2-morpholin-4-yl-ethoxy)-pyrimidine-4-carboxylic acid (3-nitro-phenyl)-amide]	≥ 1 µM
Cc1[nH]c2ccc(NC(=O)c3cc(NCC(=O)NC4CCCC4)nc(N4CCOCC4)n3)cc2c1C [Compound 110, 6-(Cyclopentylcarbamoylmethyl-amino)-2-morpholin-4-yl-pyrimidine-4-carboxylic acid (2,3-dimethyl-1H-indol-5-yl)-amide]	< 1 µM
COCCN(C)c1cc(C(=O)Nc2cccc(-c3nncn3C)c2)nc(N2CCOCC2)n1 [Compound 208, 6-((2-methoxyethyl)(methyl)amino)-N-(3-(4-methyl-4H-1,2,4-triazol-3-yl)phenyl)-2-morpholinopyrimidine-4-carboxamide]	≥ 1 µM
COCCN(C)c1cc(N2CCOCC2)cc(C(=O)Nc2ccc3[nH]c(C)c(C)c3c2)n1 [Compound 156, 6-[(2-Methoxy-ethyl)-methyl-amino]-4-morpholin-4-yl-pyridine-2-carboxylic acid (2,3-dimethyl-1H-indol-5-yl)-amide]	< 1 µM
CCOc1cc(N2CCOCC2)c(OCC)cc1NC(=O)c1cc(N(C)CCOC)nc(N2CCOCC2)n1 [Compound 204, N-(2,5-diethoxy-4-morpholinophenyl)-6-((2-methoxyethyl)(methyl)amino)-2-morpholinopyrimidine-4-carboxamide]	≥ 1 µM
O=C(Nc1ccc2[nH]ccc2c1)c1cc(OCCc2ccccn2)nc(N2CCOCC2)n1 [Compound 4, 2-Morpholin-4-yl-6-(2-pyridin-2-yl-ethoxy)-pyrimidine-4-carboxylic acid (1H-indol-5-yl)-amide]	< 1 µM

Structure (SMILES)	IC50
O=C(Nc1cc(OCCN2CCOCC2)nc(N2CCOCC2)n1)Nc1cccc2ncccc12 [Compound 140, 1-[2-Morpholin-4-yl-6-(2-morpholin-4-yl-ethoxy)-pyrimidin-4-yl]-3-quinolin-5-yl-urea]	≥ 1 µM
COCCN(C)c1cc(C(=O)Nc2nc(C)cc(C)n2)nc(N2CCOCC2)n1 [Compound 240, 6-[(2-Methoxy-ethyl)-methyl-amino]-2-morpholin-4-yl-pyrimidine-4-carboxylic acid (4,6-dimethyl-pyrimidin-2-yl)-amide]	≥ 1 µM
Cc1cccc(NC(=O)Nc2nc(OCCc3ccccn3)cc(N3CCOCC3)n2)c1 [Compound 71, 1-[4-Morpholin-4-yl-6-(2-pyridin-2-yl-ethoxy)-pyrimidin-2-yl]-3-m-tolyl-urea]	≥ 1 µM
CNc1cc(C(=O)Nc2ccc3[nH]c(C)c(C)c3c2)nc(N2CCOCC2)n1 [Compound 247, N-(2,3-dimethyl-1H-indol-5-yl)-6-(methylamino)-2-morpholino-pyrimidine-4-carboxamide]	< 1 µM
CC(=O)N1CCN(c2cc(C(=O)Nc3ccc4[nH]c5c(c4c3)CCCC5)nc(N3CCOCC3)n2)CC1 [Compound 262, 6-(4-acetylpiperazin-1-yl)-2-morpholino-N-(2,3,4,9-tetrahydro-1H-carbazol-6-yl)pyrimidine-4-carboxamide]	< 1 µM
O=C(Nc1ccc2c(c1)CCC2)c1cc(OCCN2CCOCC2)nc(N2CCOCC2)n1 [Compound 40, 2-Morpholin-4-yl-6-(2-morpholin-4-yl-ethoxy)-pyrimidine-4-carboxylic acid indan-5-ylamide]	≥ 1 µM
CCc1c[nH]c2ccc(NC(=O)c3cc(N4CCN(C(C)=O)CC4)cc(N4CCOCC4)n3)cc12 [Compound 181, 4-(4-Acetyl-piperazin-1-yl)-6-morpholin-4-yl-pyridine-2-carboxylic acid (3-ethyl-1H-indol-5-yl)-amide]	< 1 µM
O=C(Nc1ccc2[nH]ccc2c1)Nc1cc(OCCN2CCOCC2)nc(N2CCOCC2)n1 [Compound 137, 1-(1H-Indol-5-yl)-3-[2-morpholin-4-yl-6-(2-morpholin-4-yl-ethoxy)-pyrimidin-4-yl]-urea]	< 1 µM
Cc1cccc(NC(=O)c2cc(N3CCOCC3)nc(OCCc3ccccn3)n2)c1 [Compound 62, 6-Morpholin-4-yl-2-(2-pyridin-2-yl-ethoxy)-pyrimidine-4-carboxylic acid m-tolylamide]	≥ 1 µM
Cc1[nH]c2ccc(NC(=O)c3cc(NCC(=O)O)nc(N4CCOCC4)n3)cc2c1C [Compound 96, [6-(2,3-Dimethyl-1H-indol-5-ylcarbamoyl)-2-morpholin-4-yl-pyrimidin-4-ylamino]-acetic acid]	< 1 µM
Cc1[nH]c2ccc(NC(=O)c3cc(NCC(=O)N4CCOCC4)nc(N4CCOCC4)n3)cc2c1C [Compound 89, 2-Morpholin-4-yl-6-(2-morpholin-4-yl-2-oxo-ethylamino)-pyrimidine-4-carboxylic acid (2,3-dimethyl-1H-indol-5-yl)-amide]	< 1 µM
Cn1c(=O)oc2cc(NC(=O)Nc3cc(OCCN4CCOCC4)nc(N4CCOCC4)n3)ccc21 [Compound 134, 1-(3-Methyl-2-oxo-2,3-dihydro-benzooxazol-6-yl)-3-[2-morpholin-4-yl-6-(2-morpholin-4-yl-ethoxy)-pyrimidin-4-yl]-urea]	≥ 1 µM
COCCN(C)c1cc(C(=O)Nc2cccc(-c3cnc4ccccc4n3)c2)nc(N2CCOCC2)n1 [Compound 242, 6-[(2-Methoxy-ethyl)-methyl-amino]-2-morpholin-4-yl-pyrimidine-4-carboxylic acid (3-quinoxalin-2-yl-phenyl)-amide]	≥ 1 µM
O=C(Nc1ccc2[nH]c3c(c2c1)CCCC3)c1cc(OCCN2CCOC2=O)nc(N2CCOCC2)n1 [Compound 223, 2-Morpholin-4-yl-6-[2-(2-oxo-oxazolidin-3-yl)-ethoxy]-pyrimidine-4-carboxylic acid (6,7,8,9-tetrahydro-5H-carbazol-3-yl)-amide]	< 1 µM
Cc1[nH]c2ccc(NC(=O)c3cc(NCC(=O)N4CCN(C)CC4)nc(N4CCOCC4)n3)cc2c1C [Compound 106, 6-[2-(4-Methyl-piperazin-1-yl)-2-oxo-ethylamino]-2-morpholin-4-yl-pyrimidine-4-carboxylic acid (2,3-dimethyl-1H-indol-5-yl)-amide]	< 1 µM
CN(CCO)c1cc(C(=O)Nc2cccc(-n3cccc3)c2)nc(N2CCOCC2)n1 [Compound 304, 6-[(2-Hydroxy-ethyl)-methyl-amino]-2-morpholin-4-yl-pyrimidine-4-carboxylic acid (3-pyrrol-1-yl-phenyl)-amide]	< 1 µM
CCc1c(C)[nH]c2ccc(NC(=O)c3cc(N4CCC5(CC4)OCCO5)nc(N4CCOCC4)n3)cc12 [Compound 180, 6-(1,4-Dioxa-8-aza-spiro[4.5]dec-8-yl)-2-morpholin-4-yl-pyrimidine-4-carboxylic acid (3-ethyl-2-methyl-1H-indol-5-yl)-amide]	< 1 µM
